Tested on: HT-1080 cells
Assay: HT-1080 cell viability assay (ferroptosis induced by RSL3, Cell Titer-Glo)
Format: cell-based
Settings: Homo sapiens, HT-1080, 20 h, ferroptosis inducer RSL3, 20 hours, ferroptosis inhibitory activity, Table 3
How it was run: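 Cells seeded overnight, then co-treated with RSL3 and compound (3-fold, 10-point dilution, top 1.1 μM) for 20 hours. Viability by CellTiter-Glo luminescence, normalized to untreated controls; EC50 from sigmoidal non-linear regression.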

SMILES	EC50 [µM]
NC1CC2(C1)CC(Nc1ccc3nc(NCC(F)(F)F)ccc3c1)C2 (stereo not shown) [Compound 639, N^6-(6-aminospiro[3.3]heptan-2-yl)-N^2-(2,2,2-trifluoroethyl) quinoline-2,6-diamine]	0.0001 to 0.1
CCc1cc(N2C[C@@H](C)O[C@@H](C)C2)ccc1NC1CC2(CC(N)C2)C1 (stereo partly drawn) [Compound 640, N2-(4-((25,6R)-2,6-dimethylmorpholino)-2-ethylphenyl)spiro[3.3]heptane-2,6-diamine]	0.0001 to 0.1
Cc1nc(N2CC(C)N(CC(F)(F)F)C(C)C2)c(F)cc1NC1CC2(CC(N)C2)C1 (stereo not shown) [Compound 641, N^2-(6-(3,5-dimethyl-4-(2,2,2-trifluoroethyl)piperazin-1-yl)-5-fluoro-2-methylpyridin-3-yl)spiro [3.3]heptane-2,6-diamine]	0.0001 to 0.1
Cc1nc(N2CC(C)N(C(=O)C(F)(F)F)C(C)C2)ccc1NC1CC2CCC(C1)N2 (stereo not shown) [Compound 642, 1-(4-(5-((8-azabicyclo[3.2.1]octan-3-yl)amino)-6-methylpyridin-2-yl)-2,6-dimethylpiperazin-1-yl)-2,2,2-trifluoroethan-1-one]	0.0001 to 0.1
Cc1nc(N2CC(C)N(CC(F)(F)F)C(C)C2)ccc1NC1CC2CCC(C1)N2 (stereo not shown) [Compound 643, N-(6-(3,5-dimethyl-4-(2,2,2-trifluoroethyl)piperazin-1-yl)-2-methylpyridin-3-yl)-8-azabicyclo[3.2.1]octan-3-amine]	0.0001 to 0.1
Cc1cc(N2CC(C)N(C(=O)C(F)(F)F)C(C)C2)ccc1NC1CC2(CC(N)C2)C1 (stereo not shown) [Compound 644, 1-(4-(4-((6-aminospiro[3.3]heptan-2-yl)amino)-3-methylphenyl)-2,6-dimethylpiperazin-1-yl)-2,2,2-trifluoroethan-1-one]	0.0001 to 0.1
[2H]C1(Nc2ccc(N3C[C@@H](C)O[C@@H](C)C3)nc2C)CC2(CC(N)C2)C1 (stereo partly shown) [Compound 645]	0.0001 to 0.1
CC1(C)CN(c2ccc3cc(NC4CC5(CC(N)C5)C4)ccc3n2)CC(C)(C)O1 (stereo not shown) [Compound 646, N2-(2-(2,2,6,6-tetramethylmorpholino)quinolin-6-yl)spiro[3.3]heptane-2,6-diamine]	0.0001 to 0.1
Cc1cc(NC2CC3(CC(N)C3)C2)ccc1N1CC(C)N(C(=O)C(F)(F)F)C(C)C1 (stereo not shown) [Compound 647, 1-(4-(4-((6-aminospiro[3.3]heptan-2-yl)amino)-2-methylphenyl)-2,6-dimethylpiperazin-1-yl)-2,2,2-trifluoroethan-1-one]	0.0001 to 0.1
CC1CN(c2ccc3cc(NC4CC5(CC(N)C5)C4)ccc3c2)CCO1 (stereo not shown) [Compound 648]	0.0001 to 0.1
C[C@@H]1CN(c2ccc3cc(NC4CC(CN)C4)ccc3c2)C[C@H](C)O1 (stereo partly drawn) [Compound 649, N-(3-(aminomethyl)cyclobutyl)-6-((2S,6R)-2,6-dimethylmorpholino) naphthalen-2-amine]	0.0001 to 0.1
COCCNc1ccc2cc(NC3CC4(CC(N)C4)C3)ccc2c1 (stereo not shown) [Compound 650, N2-(6-aminospiro [3.3]heptan-2-yl)-N6-(2-methoxyethyl) naphthalene-2,6-diamine]	0.0001 to 0.1
CCCNc1ccc2cc(NC3CC4(CC(N)C4)C3)ccc2c1 (stereo not shown) [Compound 651, N^2-(6-aminospiro [3.3]heptan-2-yl)-N^6-propylnaphthalene-2,6-diamine]	0.0001 to 0.1
NC1CC2(C1)CC(Nc1ccc3cc(N4CCOC(C(F)(F)F)C4)ccc3c1)C2 (stereo not shown) [Compound 653, N2-(6-(2-(trifluoromethyl)morpholino)naphthalen-2-yl)spiro[3.3]heptane-2,6-diamine]	0.0001 to 0.1
CN(CC(F)(F)F)c1ccc2cc(NC3CC(N)C3)ccc2c1 (stereo not shown) [Compound 654]	0.0001 to 0.1
CN(CC(F)(F)F)c1ccc2cc(NC3CC(N)C3)ccc2n1 (stereo not shown) [Compound 655, N^6-(3-aminocyclobutyl)-N^2-methyl-N^2-(2,2,2-trifluoroethyl) quinoline-2,6-diamine]	0.0001 to 0.1
Cc1nc(N(C)CC(F)(F)F)ccc1NC1CC2CCC(C1)N2 (stereo not shown) [Compound 656, N^5-(8-azabicyclo[3.2.1]octan-3-yl)-N^2,6-dimethyl-N^2-(2,2,2-trifluoroethyl)pyridine-2,5-diamine]	0.0001 to 0.1
CC[C@@H]1CN(c2ccc(NC3CC4CCC(C3)N4)c(C)n2)C[C@H](CC)O1 (stereo partly drawn) [Compound 657, N-(6-((2S,6R)-2,6-diethylmorpholino)-2-methylpyridin-3-yl)-8-azabicyclo[3.2.1]octan-3-amine]	0.0001 to 0.1
CCNc1ccc2cc(NC3CC4(CC(N)C4)C3)ccc2c1 (stereo not shown) [Compound 658, N2-(6-aminospiro[3.3]heptan-2-yl)-N^6-ethylnaphthalene-2,6-diamine]	0.0001 to 0.1
CCc1nc(N2CC(C)OC(C(F)(F)F)C2)ccc1NC1CC2(CC(N)C2)C1 (stereo not shown) [Compound 659, N2-(2-ethyl-6-(2-methyl-6-(trifluoromethyl)morpholino)pyridin-3-yl)spiro[3.3]heptane-2,6-diamine]	0.0001 to 0.1
COCCN(CC(F)(F)F)c1ccc(NC2CC3(CC(N)C3)C2)c(C)n1 (stereo not shown) [Compound 660, N^5-(6-aminospiro[3.3]heptan-2-yl)-N^2-(2-methoxyethyl)-6-methyl-N2-(2,2,2-trifluoroethyl)pyridine-2,5-diamine]	0.0001 to 0.1
CC1CN(c2ccc3cc(NC4CC(N)C4(C)C)ccc3c2)CCO1 (stereo not shown) [Compound 661]	0.0001 to 0.1

— US20240360114A1 (SIRONAX LTD., priority 2021, published 2024)
